Measurements reported in patent US6864253B2, “Benzo[4,5]thieno[2,3-c]pyridine and Benzo[4,5]furo[2,3-c]pyridine Derivatives Useful as Inhibitors of Phosphodiesterase” (Orth-McNeil Pharmaceutical, Inc., priority 2000, dated 2005).

Molecular target: PDEV (Oryctolagus cuniculus, UniProt G1SX67)
Test: Cyclic nucleotide phosphodiesterase (PDE) assay, inhibition of PDEV isolated from rabbit tissue
Assay type: biochemical
Settings: for inhibition at 10 µM: read-out: % INH @ 10 μM (rabbit)
Description: Briefly, rabbit or human tissues were homogenized in an ice-cold buffer solution containing 20 mM HEPES (pH 7.2), 0.25M sucrose, 1 mM EDTA, and 1 mM phenylmethylsulphonyl fluoride (PMSF). The homogenates were centrifuged at 100,000 g for 60 minutes at 4° C. The supernatant was filtered through […] filter and loaded on a Pharmacia Mono Q anion exchange column (1 ml bed volume) that was equilibrated with 20 mM HEPES, 1 mM EDTA and 0.5 mM PMSF. […] The fractions comprising various PDE activities were pooled separately and used in later studies.
The assays were adapted to a 96-well format. The enzyme was assayed in 5 mM MgCl2, 15 mM Tris HCl (pH 7.4), 0.5 mg/ml bovine serum albumin, 1 μM cGMP or cAMP, 0.1 μCi [^3H]-cGMP or [^3H]-cAMP, and 2-10 μl of column elution. The total volume of the assay was 100 μl. The reaction mixture was incubated at 30° C. for 30 minutes. The reaction was stopped by boiling for 1 minute and then cooled down on ice. The resulting [^3H] 5′-mononucleotides were further converted to uncharged [^3H]-nucleosides by adding 25 μl 1 mg/ml snake venom (Ophiophagus hannah) and incubating at 30° C. for 10 minute. The reaction was stopped by the addition of 1 ml Bio-Rad AG1-X2 resin slurry (1:3). All the charged nucleotides were bound by the resin and only the uncharged [^3H]-nucleosides remained in the supernatant after centrifuging. An aliquot of 200 μl was taken and counted by liquid scintillation. PDE activity was expressed as pmol cyclic nucleotide hydrolyzed/min/ml of enzyme preparation.
Inhibitor studies were carried out in assay buffer with a final concentration of 10% DMSO.

[1] = 10 μM test compound, rabbit PDEV

Compound | % Inh @ 10 μM (rabbit) [1] | also measured
CN(C)CCn1c2c(c3ccccc31)CCN(C(=O)c1ccc(-c3ccccc3)o1)C2c1ccc2c(c1)OCO2 (stereo not shown) [Cmpd 152] |  | inhibition at 10 µM [1]: 80%
Cc1ccc(-c2ccc(C(=O)N3CCc4c(n(CCN(C)C)c5ccccc45)C3c3ccc4c(c3)OCO4)o2)c([N+](=O)[O-])c1 (stereo not shown) [Cmpd 42] | 89% | 
FC(F)(F)c1cccc(-c2ccc(CN3CCc4c([nH]c5ccccc45)C3c3ccc4c(c3)OCO4)o2)c1 (stereo not shown) [Cmpd 12] | 76% | 
CN(C)CCn1c2c(c3ccccc31)CCN(C(=O)c1cc3cc([N+](=O)[O-])ccc3o1)C2c1ccc2c(c1)OCO2 (stereo not shown) [Cmpd 13] | 94% | 
O=C(O)C1Cc2c([nH]c3ccccc23)C(c2ccc3c(c2)OCO3)N1C(=O)c1ccc(-c2cccc(C(F)(F)F)c2)o1 (stereo not shown) [Cmpd 70] | 46% | 
O=C(c1cc2ccccc2o1)N1CCc2c([nH]c3ccccc23)C1c1ccc2c(c1)OCO2 (stereo not shown) [Cmpd 16] | 88% | 
CN(C)CCCn1c2c(c3ccccc31)CCN(C(=O)c1ccc(-c3cccc(C(F)(F)F)c3)o1)C2c1ccc2c(c1)OCO2 (stereo not shown) [Cmpd 44] | 65% | 
O=C(c1ccc(-c2cccc(C(F)(F)F)c2)o1)N1CCc2c([nH]c3ccccc23)C1c1cccnc1 (stereo not shown) [Cmpd 78] | 35% | 
O=C(c1cc2cc([N+](=O)[O-])ccc2o1)N1CCc2c([nH]c3ccccc23)C1c1ccc2c(c1)OCO2 (stereo not shown) [Cmpd 14] | 88% | 
CN(C)CCOC(=O)C1Cc2c([nH]c3ccccc23)C(c2ccc3c(c2)OCO3)N1C(=O)c1ccc(-c2cccc([N+](=O)[O-])c2)o1 (stereo not shown) [Cmpd 68] | 35% | 
Cc1cc(C)cc(C2c3[nH]c4ccccc4c3CCN2C(=O)c2cc(C(C)(C)C)nn2Cc2ccccc2)c1 (stereo not shown) [Cmpd 137] | −3% | 
O=C(c1cnn(-c2ccc(Cl)cc2)c1C(F)(F)F)N1CCc2c([nH]c3ccccc23)C1c1ccc2c(c1)OCO2 (stereo not shown) [Cmpd 124] | 53% | 
CN(C)CCn1c2c(c3ccccc31)CCN(C(=O)c1ccc(C(C)(C)C)o1)C2c1ccc2c(c1)OCO2 (stereo not shown) [Cmpd 36] | 97% | 
CS(=O)(=O)c1ccc(-c2cnc(N3CCc4c(n(CCN5CCCC5)c5ccccc45)C3c3ccc4c(c3)OCO4)nc2)c([N+](=O)[O-])c1 (stereo not shown) [Cmpd 154] |  | inhibition at 10 µM [1]: 97%
c1ccc2c3c([nH]c2c1)C(c1ccc2c(c1)CCO2)N(c1ncc(-c2ccc(OCCN4CCOCC4)cc2)cn1)CC3 (stereo not shown) [Cmpd 180] |  | % INH @ 10 μM (rabbit) [1]: 40%
CN(C)CCn1c2c(c3ccccc31)CCN(C(=O)c1ccc(-c3ccc([N+](=O)[O-])cc3)o1)C2c1ccc2c(c1)OCO2 (stereo not shown) [Cmpd 37] | 95% | 
CN(C)CCn1c2c(c3ccccc31)CCN(C(=O)c1ccc(-c3ccccc3[N+](=O)[O-])o1)C2c1ccc2c(c1)OCO2 (stereo not shown) [Cmpd 41] | 93% | 
CN(C)CCNC(=O)C1Cc2c([nH]c3ccccc23)C(c2ccc3c(c2)OCO3)N1C(=O)c1ccc(-c2cccc(C(F)(F)F)c2)o1 (stereo not shown) [Cmpd 69] | 21% | 
Cc1ccc(C2c3[nH]c4ccccc4c3CCN2C(=O)c2cc(C(C)(C)C)nn2Cc2ccccc2)cc1C (stereo not shown) [Cmpd 135] | 8% | 
CN(C)CCn1c2c(c3ccccc31)CCN(C(=O)c1ccc(-c3cccc([N+](=O)[O-])c3)o1)C2c1ccc2c(c1)OCO2 (stereo not shown) [Cmpd 38] | 91% | 
c1ccc(-c2cnc(N3CCc4c([nH]c5ccccc45)C3c3ccc4c(c3)OCO4)nc2)nc1 (stereo not shown) [Cmpd 153] |  | inhibition at 10 µM [1]: 95%

Compound | % Inh @ 10 μM (rabbit) [1] | also measured
CN(C)CCn1c2c(c3ccccc31)CCN(C(=O)c1cc3ccccc3o1)C2c1ccc2c(c1)OCO2 (stereo not shown) [Cmpd 147] |  | inhibition at 10 µM [1]: 52%
O=C(c1ccc(-c2ccc(NCCCCO)cc2)o1)N1CCc2c([nH]c3ccccc23)C1c1ccc2c(c1)OCO2 (stereo not shown) [Cmpd 60] | 89% | 
O=C(c1cnn(-c2ccccc2)c1C(F)(F)F)N1CCc2c([nH]c3ccccc23)C1c1ccc(Cl)c(C(F)(F)F)c1 (stereo not shown) [Cmpd 127] | 13% | 
CC(C)(C)c1cc(C(=O)N2CCc3c([nH]c4ccccc34)C2c2ccc3c(c2)OCO3)n(Cc2ccccc2)n1 (stereo not shown) [Cmpd 136] | 18% | 
Cc1ccc(-c2ccc(C(=O)N3CCc4c([nH]c5ccccc45)C3c3ccc4c(c3)OCO4)o2)c([N+](=O)[O-])c1 (stereo not shown) [Cmpd 53] | 85% | 
CC(C)(C)c1cc(C(=O)N2CCc3c([nH]c4ccccc34)C2c2ccc(Cl)c(Cl)c2)n(Cc2ccccc2)n1 (stereo not shown) [Cmpd 133] | 1% | 
c1ccc2sc(N3CCc4c([nH]c5ccccc45)C3c3ccc4c(c3)OCO4)nc2c1 (stereo not shown) [Cmpd 3] | 84% | 
CN(C)CCn1c2c(c3ccccc31)CCN(c1nc3ccccc3o1)C2c1ccc2c(c1)OCO2 (stereo not shown) [Cmpd 155] |  | IC50: 9.2 µM; inhibition at 10 µM [1]: 57%
COc1ccc(C2c3[nH]c4ccccc4c3CCN2C(=O)c2cc(C(C)(C)C)nn2Cc2ccccc2)cc1 (stereo not shown) [Cmpd 141] | 11% | 
O=S(=O)(c1ccccc1)c1ccsc1S(=O)(=O)N1CCc2c([nH]c3ccccc23)C1c1ccc2c(c1)OCO2 (stereo not shown) [Cmpd 146] | 35% | 
c1ccc2oc(N3CCc4c([nH]c5ccccc45)C3c3ccc4c(c3)OCO4)nc2c1 (stereo not shown) [Cmpd 151] |  | inhibition at 10 µM [1]: 95%
Cc1ccc(C2c3[nH]c4ccccc4c3CCN2C(=O)c2cnn(-c3ccccc3)c2C(F)(F)F)cc1C (racemic) [Cmpd 119] | 28% | 
O=C(c1cc(-c2ccccc2)c(C(F)(F)F)s1)N1CCc2c([nH]c3ccccc23)C1c1ccc2c(c1)OCO2 (stereo not shown) [Cmpd 90] | 69% | 
Cc1onc(-c2ccccc2)c1C(=O)N1CCc2c([nH]c3ccccc23)C1c1ccc(C#N)cc1 (racemic) [Cmpd 115] | 30% | 
O=C(c1ccc(-c2cccc(C(F)(F)F)c2)o1)N1CCc2c(n(C(=O)c3ccc(-c4cccc(C(F)(F)F)c4)o3)c3ccccc23)C1c1ccc2c(c1)OC(F)(F)O2 (stereo not shown) [Cmpd 20] | 4% | 
O=C(c1ccc(-c2cccc(C(F)(F)F)c2)o1)N1CCc2c(n(CCCCCl)c3ccccc23)C1c1ccc2c(c1)OCO2 (stereo not shown) [Cmpd 27] | 56% | 
O=C(c1ccc(-c2ccc(Cl)cc2)s1)N1CCc2c([nH]c3ccccc23)C1c1ccc2c(c1)OCO2 (stereo not shown) [Cmpd 91] | 82% | 
COc1ccc(C2c3[nH]c4ccccc4c3CCN2C(=O)c2c(-c3ccccc3)noc2C)cc1 (racemic) [Cmpd 117] | 32% | 
Clc1ccc(-c2cnc(N3CCc4c([nH]c5ccccc45)C3c3ccc4c(c3)OCO4)nc2)cc1 (stereo not shown) [Cmpd 10] | 79% | 
O=C(c1ccc(-c2ccc(Cl)cc2)o1)N1CCc2c(sc3ccccc23)C1c1ccc2c(c1)OCO2 (stereo not shown) [Cmpd 77] | 58% | 
Cc1cc(C(=O)N2CCc3c([nH]c4ccccc34)C2c2ccc(OCCCN(C)C)cc2)nn1-c1ccccc1 (racemic) [Cmpd 107] | 15% | 
